PubChem BioAssay (NCI)
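48-hour exposure; five concentrations; linearly interpolated endpoints. TGI denotes the concentration required for complete inhibition of growth.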

Experiments:
Experiment in all cases: NCI-60 cell line screen, 48 h
CCRF-CEM leukemia = test system: CCRF-CEM leukemia
DU-145 prostate = test system: DU-145 prostate
IGROV1 ovarian = test system: IGROV1 ovarian
MCF7 breast = test system: MCF7 breast
MDA-N = test system: MDA-N
SF-268 CNS = test system: SF-268 CNS
SF-539 CNS = test system: SF-539 CNS
SW-620 colon = test system: SW-620 colon
UACC-257 melanoma = test system: UACC-257 melanoma
UO-31 renal = test system: UO-31 renal

| Structure (SMILES) | TGI (CCRF-CEM leukemia) | TGI (DU-145 prostate) | TGI (IGROV1 ovarian) | TGI (MCF7 breast) | TGI (MDA-N) | TGI (SF-268 CNS) | TGI (SF-539 CNS) | TGI (SW-620 colon) | TGI (UACC-257 melanoma) | TGI (UO-31 renal) |
| --- | --- | --- | --- | --- | --- | --- | --- | --- | --- | --- |
| COC(=O)c1ccc2cc(O)ccc2c1 | > 100 µM | > 100 µM | > 100 µM | > 100 µM | > 100 µM | > 100 µM | > 100 µM | > 100 µM | > 100 µM | > 100 µM |
| CC(C)(C)[Si](C)(C)OC1CCOC1(O)c1ccccn1 (stereo not given) | > 100 µM | > 100 µM | > 100 µM | > 100 µM | > 100 µM | > 100 µM | > 100 µM | > 100 µM | > 100 µM | > 100 µM |
| O=C(O)Cn1c[n+](NC(=O)Cc2ccccc2)cn1 | > 10 µM | > 10 µM | > 10 µM | > 10 µM | > 10 µM | > 10 µM | > 10 µM | > 10 µM | > 10 µM | > 10 µM |
| CC(=O)Nc1ccc2c(c1)nc1c3ccccc3ccn21 | > 100 µM | > 100 µM | > 100 µM | > 100 µM | > 100 µM | > 100 µM | > 100 µM | > 100 µM | > 100 µM | > 100 µM |
| CC1=NN(c2cccc(Cl)c2)C2(C1=Cc1ccc(N(C)C)cc1)C(Cl)C(=O)N2c1nc2ccccc2s1 (stereo not given) | > 100 µM | > 100 µM | > 100 µM | > 100 µM | > 100 µM | 52.4 µM | > 100 µM | > 100 µM | > 100 µM | > 100 µM |
| COc1ccccc1Cn1c2c(c3cc(O)ccc31)C(=O)c1ccccc1C2=O | > 100 µM | > 100 µM | > 100 µM | 96.7 µM | > 100 µM | 86.1 µM | 57.6 µM | > 100 µM | > 100 µM | > 100 µM |
| CCOP(=O)(CC1OC(CO)C(O)C1O)OCC (stereo not given) | > 100 µM | > 100 µM | > 100 µM | > 100 µM | > 100 µM | > 100 µM | > 100 µM | > 100 µM | > 100 µM | > 100 µM |
| C/C(=C\CO)CC[C@@H]1[C@@]2(C)CCCC(C)(C)[C@@H]2CC[C@@]1(C)O | 51.5 µM | 34.3 µM | 35.5 µM | 30.8 µM | 38 µM | 32.4 µM | 32.4 µM | 50.5 µM | 38 µM | 50.3 µM |
| CO[C@H](C)[C@](O)(C(=O)OCC1=CCN2CC[C@@H](O)[C@H]12)C(C)C | > 100 µM | > 100 µM | > 100 µM | > 100 µM | > 100 µM | > 100 µM | > 100 µM | > 100 µM | > 100 µM | > 100 µM |
| Cc1ccc2nc(Nc3ccccc3C)c(Nc3ccccc3C)nc2c1 | > 80.6 µM | > 100 µM | > 100 µM | > 100 µM | 67.1 µM | > 100 µM | > 100 µM | > 100 µM | 72.3 µM | 60.8 µM |
| CN(C)CN1C(=O)/C(=N\n2c(-c3ccncc3)n[nH]c2=S)c2ccccc21 | > 100 µM | 81.6 µM | > 100 µM | > 100 µM | 31.8 µM | > 100 µM | 52.4 µM | > 100 µM | 32.9 µM | 57 µM |
| O=C1c2cccnc2C(=O)c2c1nc1ccccc1c2-c1ccc2c3c(nc4ccccc42)C(=O)c2cccnc2-c13 | 15.5 µM | 1.34 µM | 1.39 µM | 8.05 µM | 8.82 µM | 6.46 µM | 7.49 µM | 4.79 µM | 5.38 µM | 4.62 µM |
| CCCCCc1cc(CCCC)sc1-c1ccco1 | > 75 µM | > 100 µM | > 100 µM | > 100 µM | > 100 µM | > 100 µM | > 100 µM | > 100 µM | > 100 µM | > 100 µM |
| Cn1c2ccccc2c2c3c(=O)[nH][nH]c(=O)c3c3c4ccccc4n(C)c3c21 | > 100 µM | > 100 µM | > 100 µM | > 100 µM | > 100 µM | > 100 µM | > 100 µM | > 100 µM | > 100 µM | > 100 µM |
